Values of other authors, collected in patent US20080014156A1, “PHOTOPROTECTANT COMPOSITION FOR PREVENTING SUNBURN AND SUN DAMAGE TO THE SKIN” (priority 2006, published 2008).

Conditions: relative to vitamin E

In the case of CC1=C(/C=C/C(C)=C/C=C/C(C)=C/C=C/C=C(C)/C=C/C=C(C)/C=C/C2=C(C)C(=O)[C@@H](O)CC2(C)C)C(C)(C)C[C@H](O)C1=O [Astaxanthin], the “antioxidant effectiveness compared with vitamin E” value is listed as “up to 550 times”.
